From US6844366B2, “Sulfonamide hydroxamates” (Syntex (U.S.A.) LLC, priority 1998, dated 2005) come the findings set out here.

Molecules are shown by their SMILES.

As usually defined, the melting point is the temperature, or range, at which the solid turns liquid. Compound `COC(=O)c1ccc(CN([C@@H](C(=O)NO)C(C)C)S(=O)(=O)c2ccc(OC)cc2)cc1` [Compound 21, N-Hydroxy-2(R)-[(4-methoxycarbonylbenzyl)-(4-methoxybenzenesulfonyl)amino]-3-methylbutyramide] gave a melting point of 164 to 165 °C.

As for `COc1cc(C)c(S(=O)(=O)N(Cc2ccc3c(c2)OCO3)[C@@H](C(=O)NO)[C@H](C)O)c(C)c1C` [Compound 87, N-hydroxy-2(R)-[(3,4-methylenedioxybenzyl)-(4-methoxy-2,3,6-trimethylbenzenesulfonyl)amino]-3(S)-hydroxybutyramide], the melting point was in the range of 95 to 105 °C. As for `COc1cc(C)c(S(=O)(=O)N(Cc2ccc3[nH]cc(C(C)=O)c3c2)[C@@H](C(=O)NO)C(C)C)c(C)c1C` [Compound 126, N-hydroxy-2(R)-[(1H-3-acetyl-indol-5-ylmethyl)-(4-methoxy-2,3,6-trimethylbenzenesulfonyl)amino]-3-methylbutyramide], the melting point lay in the range of 163 to 171 °C. Regarding `COc1cc(C)c(S(=O)(=O)N(Cc2ccc3c(c2)OCO3)[C@H](CNS(C)(=O)=O)C(=O)NO)c(C)c1` [Compound 128, N-hydroxy-2(R)-[(3,4-methylendioxybenzyl)-(2,6-dimethyl-4-methoxybenzenesulfonyl)amino]-3-(methanesulfonyl)amino-propionamide], the melting point was 98 to 102 °C. With `COc1cc(C)c(S(=O)(=O)N(Cc2ccc3c(c2)OCO3)[C@H](CNS(=O)(=O)c2ccccc2)C(=O)NO)c(C)c1` [Compound 129, N-hydroxy-2(R)-[(3,4-methylendioxybenzyl)-(2,6-dimethyl-4-methoxybenzenesulfonyl)amino]-3-benzenesulfonylamino-propionamide] the figure was 103 to 107 °C; with `COC(=O)c1ccc(C(=O)NC[C@H](C(=O)NO)N(Cc2ccc3c(c2)OCO3)S(=O)(=O)c2c(C)cc(OC)cc2C)cc1` [Compound 133, N-hydroxy-2(R)-[(3,4-methylendioxybenzyl)-(2,6-dimethyl-4-methoxybenzenesulfonyl)amino]-3-(4-methoxycarbonyl-benzoyl)amino-propionamide], 119 to 124 °C; with `COc1cc(C)c(S(=O)(=O)N(Cc2ccc3[nH]ccc3c2)[C@@H](C(=O)NO)C(C)C)cc1C` [Compound 145, N-hydroxy-2(R)-2-[(1H-indol-5-ylmethyl)-(4-methoxy-2,5-dimethylbenzenesulfonyl)-amino]-3-methylbutyramide], 117 to 121 °C.
